In PMC3921447, “Homologous and heterologous desensitization of guanylyl cyclase-B signaling in GH3 somatolactotropes” (Cell and Tissue Research, 2013):
Read-outs that look alike come from different tables or passages of the source. Ends that are not written are not given here.

Experiments:
[1] = test system: growth hormone secretion; details: ref Hartt et al. [1995]; Shimekake et al. [1994]; cited from earlier work
From the text: Both humans and mice with mutations in the genes encoding either CNP or its receptor, GC-B, suffer from severe growth disorders (Chusho et al. [2001]) and, in some cases, growth hormone deficiency (Tamura et al. [2004]). Despite significant homology between the three natriuretic peptides and between their receptors, mutations in the genes encoding ANP, BNP, or GC-A fail to phenocopy CNP/GC-B-disrupted mice (Kishimoto et al. [2011]). Our recent observations of GC-B expression in normal fetal pituitary tissue and in a range of human pituitary adenomas (including those from acromegalics) strongly ...

[2] = test system: GC-B; details: αT3-1 cells, cited from earlier work
From the text: Experimental paradigms to investigate receptor desensitization are often performed in one of two ways: time-course studies of a single continuous exposure to ligand or pre-treatment and subsequent re-exposure to the same ligand. Our current studies involved the use of both of these approaches to examine particulate guanylyl cyclase signaling in GH3 cells, similar to previous studies investigating PACAP signaling in gonadotropes (McArdle and Forrest-Owen [1997]). Time-course studies of CNP-stimulated cGMP accumulation in GH3 cells have shown a rapid elevation of cGMP levels within 5 min of CNP ... || The other major mechanism mediating heterologous desensitization of GC-A and GC-B signaling is the PKC pathway (Potter et al. [2006]). We examined the effects of pre-treatment with TRH, PMA, or PACAP. […] This is in agreement with the predominant expression of vasoactive intestinal peptide activated receptor 2, which is known preferentially to activate cAMP and PKA (Hao et al. [2006]). In contrast, pre-treatments with two known activators of PKC, TRH and PMA do ...

[3] = test system: GC-B; details: 293 T cells; ref Abbey-Hosch et al. [2005]; cited from earlier work
From the text: (§1) The other major mechanism mediating heterologous desensitization of GC-A and GC-B signaling is the PKC pathway (Potter et al. [2006]). We examined the effects of pre-treatment with TRH, PMA, or PACAP. […] This is in agreement with the predominant expression of vasoactive intestinal peptide activated receptor 2, which is known preferentially to activate cAMP and PKA (Hao et al. [2006]). In contrast, pre-treatments with two known activators of PKC, TRH and PMA do ...

[4] = test system: GH3 cells; test: Basal cGMP accumulation in GH3 cells after pre-treatment; format: cell-based, rat; details: 100 nM TRH, PMA or PACAP, 30 min pre-treatment; ns, P > 0.05; Fig. 7a
From the text: (§2) Sphingolipids and calcium have been implicated in regulating natriuretic peptide signaling (Abbey-Hosch et al. [2004]; Abbey and Potter [2002]). Therefore, we examined the role of sphingosine-1-phosphate (S1P) on CNP-stimulated cGMP accumulation. […] However, S1P pre-treatment did cause desensitization of CNP-stimulated cGMP accumulation (by 30 ± 2.7 % compared with control, **P < 0.01).
(§3) Fig. 6 Evidence of sphingosine-mediated but not calcium-mediated, heterologous desensitization of GC-B signaling in GH3 somatolactotrope cells. GH3 cells were pre-treated with PSS containing either (a, b) 10 μM sphingosine-1-phosphate (S1P) or (c, d) 1 μM A23187 (calcium ionophore) for 30 min in the absence of IBMX, before a 15-min stimulation with either 100 nM CNP (a, c) or 100 nM ANP (b, d) in the presence of 1 mM IBMX.
(§4) Subsequent experiments examined the potential regulation of GC-B signaling by other peptide hormones. To determine whether the GC-B receptor underwent heterologous desensitization in GH3 cells, the effect of three known activators of PKC on CNP-stimulated cGMP accumulation was analyzed. […] To establish whether the TRH-induced heterologous desensitization of GC-B signaling was PKC-dependent, GH3 cells were pre-treated with either 0 or 1 μM GF109203X for 30 min to inhibit PKC activity. After this, cells were further pre-treated in the absence or presence of GF109203X and 0 or 100 nM TRH for a further 30 min, prior to stimulation with 0 or 100 nM CNP for a final 15-min stimulation in the presence of 1 mM IBMX.
(§5) Fig. 7 Protein kinase C (PKC)-dependent heterologous desensitization mediates the effects of thyrotrophin-releasing hormone (TRH) on CNP-stimulated GC-B signaling in GH3 somatolactotrope cells. a GH3 cells were pre-treated with PSS containing either 0 or 100 nM TRH, phorbol-12-myristate-13-acetate (PMA), or pituitary adenylate cyclase-activating polypeptide (PACAP) for 30 min in the absence of IBMX, before a 15-min stimulation with either 0 or 100 nM CNP in the presence of 1 mM IBMX.

[5] = biological target: T1, GC-B (Rattus norvegicus, UniProt P16067); test: Heterologous desensitization of CNP-stimulated (GC-B) cGMP accumulation in GH3 cells; format: cell-based; details: then 100 nM CNP 15 min with 1 mM IBMX, n = 3
T1 construct: rapid homologous desensitization of endogenous GC-B receptors in GH3 cells; endogenous in cells; host or cells: GH3 rat somatolactotrope cells
T1 sequence (P16067 17-1047): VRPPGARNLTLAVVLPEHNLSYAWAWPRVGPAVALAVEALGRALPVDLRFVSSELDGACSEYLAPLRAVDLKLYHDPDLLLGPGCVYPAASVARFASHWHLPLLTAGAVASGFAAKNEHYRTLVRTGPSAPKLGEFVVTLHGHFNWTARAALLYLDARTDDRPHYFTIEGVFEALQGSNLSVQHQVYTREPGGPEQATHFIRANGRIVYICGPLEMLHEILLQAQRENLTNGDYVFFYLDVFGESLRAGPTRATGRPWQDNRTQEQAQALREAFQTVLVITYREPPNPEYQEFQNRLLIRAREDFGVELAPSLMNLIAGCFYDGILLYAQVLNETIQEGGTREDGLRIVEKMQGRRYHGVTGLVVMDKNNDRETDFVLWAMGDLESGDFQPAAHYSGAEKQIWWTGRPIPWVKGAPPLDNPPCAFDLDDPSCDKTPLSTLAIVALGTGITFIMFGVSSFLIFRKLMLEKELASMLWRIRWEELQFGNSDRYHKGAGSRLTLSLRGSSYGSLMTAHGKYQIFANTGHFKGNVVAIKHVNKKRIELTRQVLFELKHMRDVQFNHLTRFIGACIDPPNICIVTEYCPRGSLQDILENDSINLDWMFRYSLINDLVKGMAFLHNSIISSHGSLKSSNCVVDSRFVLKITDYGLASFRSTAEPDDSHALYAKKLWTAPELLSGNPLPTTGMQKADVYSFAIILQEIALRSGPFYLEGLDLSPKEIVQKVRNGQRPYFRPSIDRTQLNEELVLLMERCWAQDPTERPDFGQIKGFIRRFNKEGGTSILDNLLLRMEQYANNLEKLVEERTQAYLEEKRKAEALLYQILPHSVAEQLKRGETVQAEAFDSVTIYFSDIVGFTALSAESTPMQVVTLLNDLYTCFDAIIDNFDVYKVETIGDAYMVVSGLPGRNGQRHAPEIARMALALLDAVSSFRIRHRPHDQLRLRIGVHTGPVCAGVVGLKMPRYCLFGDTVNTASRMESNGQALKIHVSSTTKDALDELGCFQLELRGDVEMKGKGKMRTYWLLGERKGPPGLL
From the text: as §2, §3, §4, §5

[6] = test system: human airway smooth muscle cells; details: ref Hamad and Knox [1999]; cited from earlier work
From the text: as §1

Q: With `Nc1nc2c(ncn2[C@@H]2O[C@@H]3COP(=O)(O)O[C@H]3[C@H]2O)c(=O)[nH]1` [cGMP, cyclic guanosine 3’,5’ monophosphate] as the compound, how does the growth hormone secretion [1] read?
A: Its growth hormone secretion is “act as growth hormone secretogogs”.

Q: For “gonadotrophin-releasing hormone (QHWSYGLRPG; ends and bridges not checked; UniProt P01148 24-33, looked up)”, which “heterologous desensitization of GC-B signaling” value ([2]; ref McArdle et al. [1994], Fowkes et al. [2000]) is on record?
A: The value was “can cause the heterologous desensitization of GC-B signaling in αT3-1 cells”.

Q: With `CCCCCCCCCCCCCC(=O)O[C@@H]1[C@@H](C)[C@@]2(O)[C@@H](C=C(CO)C[C@]3(O)C(=O)C(C)=C[C@@H]23)[C@@H]2C(C)(C)[C@]12OC(C)=O` [PMA, phorbol-12-myristate-13-acetate] as the compound, how does the “desensitization of GC-B activity” value [3] read?
A: Its value is “shown to desensitize GC-B activity in 293 T cells and αT3-1 cells”.

Q: And the “basal cGMP accumulation” value [4]?
A: The value was “failed to alter basal cGMP accumulation”.

Q: And the “desensitization of GC-B activity” value ([2]; ref Fowkes et al. [2000])?
A: Its value is “shown to desensitize GC-B activity in 293 T cells and αT3-1 cells”.

Q: And the “reduction in CNP-stimulated cGMP accumulation compared with control” value ([5]; 100 nM, 30 min pre-treatment without IBMX, ***P < 0.001, Fig. 7a)?
A: The value was 51.9 ± 2.8%.

Q: For `CN(C)CCCn1cc(C2=C(c3c[nH]c4ccccc34)C(=O)NC2=O)c2ccccc21` [GF109203X], which “reversal of PKC-dependent desensitization” value [6] is on record?
A: The value was “capable of reversing the effect, as has been described previously in human airway smooth muscle cells”.

Q: What about the “CNP-stimulated cGMP, % of control response to CNP (TRH desensitization reversed to)” value ([5]; 1 μM GF109203X 30 min, then GF109203X + 100 nM TRH 30 min, ns compared with control, Fig. 7b) of the same compound?
A: The value was 76.4 ± 17.2%.
